Like-named read-outs stand apart in the source and are kept apart here.
Experiments:
[1] = molecular target: T1, TNKS2 (Homo sapiens, UniProt Q9H2K2); assay: biochemical
T1 sequence (Q9H2K2 1-1166): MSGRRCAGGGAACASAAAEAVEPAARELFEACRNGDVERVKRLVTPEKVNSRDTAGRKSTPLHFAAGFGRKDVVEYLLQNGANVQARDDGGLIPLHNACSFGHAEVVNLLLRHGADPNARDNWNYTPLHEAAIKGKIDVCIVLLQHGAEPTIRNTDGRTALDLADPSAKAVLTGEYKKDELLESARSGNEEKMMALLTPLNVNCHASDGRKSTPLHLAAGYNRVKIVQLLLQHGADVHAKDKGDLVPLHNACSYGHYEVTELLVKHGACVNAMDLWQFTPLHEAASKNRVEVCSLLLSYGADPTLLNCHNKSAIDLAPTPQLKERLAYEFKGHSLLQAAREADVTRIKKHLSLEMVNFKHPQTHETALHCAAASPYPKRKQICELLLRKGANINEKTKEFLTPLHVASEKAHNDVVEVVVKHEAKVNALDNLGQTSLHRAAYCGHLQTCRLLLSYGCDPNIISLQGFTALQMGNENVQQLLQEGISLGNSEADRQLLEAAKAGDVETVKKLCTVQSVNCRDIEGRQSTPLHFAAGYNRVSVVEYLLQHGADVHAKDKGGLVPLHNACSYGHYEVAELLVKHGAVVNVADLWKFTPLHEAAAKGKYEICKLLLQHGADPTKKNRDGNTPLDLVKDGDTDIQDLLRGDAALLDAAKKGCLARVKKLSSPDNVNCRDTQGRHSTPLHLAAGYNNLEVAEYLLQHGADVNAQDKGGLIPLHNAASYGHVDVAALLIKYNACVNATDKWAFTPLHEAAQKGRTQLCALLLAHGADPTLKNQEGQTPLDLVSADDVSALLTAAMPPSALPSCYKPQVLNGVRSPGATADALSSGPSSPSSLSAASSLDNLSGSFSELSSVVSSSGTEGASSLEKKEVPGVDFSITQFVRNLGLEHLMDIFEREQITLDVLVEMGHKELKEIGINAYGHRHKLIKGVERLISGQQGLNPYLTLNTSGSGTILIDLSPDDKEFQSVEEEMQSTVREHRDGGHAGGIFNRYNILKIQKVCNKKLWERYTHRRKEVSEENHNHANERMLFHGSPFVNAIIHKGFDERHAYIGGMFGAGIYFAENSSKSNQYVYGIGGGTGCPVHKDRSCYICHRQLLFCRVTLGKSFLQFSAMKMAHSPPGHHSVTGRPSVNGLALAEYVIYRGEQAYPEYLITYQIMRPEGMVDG
Protocol: The proteins used in Tables 1–3 were produced as described earlier. Dockerin constructs to allow enhanced activity assays for mono-ARTs (Table 4) were produced in Escherichia coli with an N-terminal maltose binding protein (MBP) and a C-terminal dockerin domain from Hungateiclostridium thermocellum Cel48s as described recently.[47]
Inhibition experiments were performed using a homogenous assay measuring NAD+ consumption.[80]−[82] Reactions were carried out in quadruplicate, and IC50 curves were fitted using sigmoidal dose response curve (four variables) in GraphPad Prism version 8.02. […] Assay conditions for PARP2, TNKS2, PARP10, and PARP15 (Tables 1–3) were recently reported.[44] The conditions for the proximity-enhanced mono-ART assays (Table 4) were also reported recently.[47] PARP6 (400 nM) inhibition was measured using the standard buffer (50 mM sodium phosphate pH 7.0) for the enhanced activity assay using 500 nM NAD^+ and 18 h incubation in r.t..

[2] = molecular target: T2, PARP2 (Homo sapiens, UniProt Q9UGN5); assay: biochemical; format: biochemical
T2 construct: made in house
T2 sequence (Q9UGN5 whole entry): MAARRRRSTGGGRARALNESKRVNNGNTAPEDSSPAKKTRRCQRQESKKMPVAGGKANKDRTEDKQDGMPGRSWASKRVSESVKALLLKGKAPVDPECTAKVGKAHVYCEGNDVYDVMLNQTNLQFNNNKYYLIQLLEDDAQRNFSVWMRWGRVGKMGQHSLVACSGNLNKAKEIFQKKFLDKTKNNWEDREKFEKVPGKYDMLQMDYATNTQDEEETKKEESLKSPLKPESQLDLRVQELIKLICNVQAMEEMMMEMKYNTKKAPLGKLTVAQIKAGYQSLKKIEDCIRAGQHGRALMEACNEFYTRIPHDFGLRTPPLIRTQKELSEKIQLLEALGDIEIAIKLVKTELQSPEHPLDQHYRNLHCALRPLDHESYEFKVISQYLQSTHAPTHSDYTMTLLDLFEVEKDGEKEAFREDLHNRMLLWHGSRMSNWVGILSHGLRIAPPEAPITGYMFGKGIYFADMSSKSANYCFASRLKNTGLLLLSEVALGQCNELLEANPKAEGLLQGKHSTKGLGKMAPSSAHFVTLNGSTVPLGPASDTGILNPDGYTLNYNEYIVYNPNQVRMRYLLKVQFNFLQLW

[3] = molecular target: T3, PARP15 (Homo sapiens, UniProt Q460N3); assay: biochemical; format: biochemical; conditions: standard assay (Tables 1-3); * value limited by the protein concentration used; > less than 50% inhibition, ≫ no inhibition at the concentration; read-out: PARP15 IC50
T3 construct: made in house
T3 sequence (Q460N3 1-678): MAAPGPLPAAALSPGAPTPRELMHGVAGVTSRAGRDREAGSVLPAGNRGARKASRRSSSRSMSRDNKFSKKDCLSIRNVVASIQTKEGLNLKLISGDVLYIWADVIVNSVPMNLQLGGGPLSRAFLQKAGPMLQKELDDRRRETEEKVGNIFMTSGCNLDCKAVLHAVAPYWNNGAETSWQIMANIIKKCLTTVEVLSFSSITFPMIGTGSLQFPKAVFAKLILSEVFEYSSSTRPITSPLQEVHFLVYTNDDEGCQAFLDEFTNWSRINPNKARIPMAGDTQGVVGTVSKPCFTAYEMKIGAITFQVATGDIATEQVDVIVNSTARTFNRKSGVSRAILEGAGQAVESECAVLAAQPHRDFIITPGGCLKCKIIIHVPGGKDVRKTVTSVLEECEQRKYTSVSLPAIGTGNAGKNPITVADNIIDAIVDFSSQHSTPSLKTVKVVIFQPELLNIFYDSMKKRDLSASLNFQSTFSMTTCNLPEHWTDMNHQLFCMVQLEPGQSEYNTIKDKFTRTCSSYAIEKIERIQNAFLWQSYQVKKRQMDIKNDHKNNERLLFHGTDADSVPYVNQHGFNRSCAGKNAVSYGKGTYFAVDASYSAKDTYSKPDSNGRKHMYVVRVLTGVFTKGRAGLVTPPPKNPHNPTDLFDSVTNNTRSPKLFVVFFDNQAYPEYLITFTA

[4] = PAMPA, blood brain barrier (BBB) permeability; format: in vitro ADME; conditions: brain polar lipid, pH 7.4, 5 h
Protocol: Each “donor solution” was prepared from a solution of the appropriate compound (DMSO, 1 mM) diluted with phosphate buffer (pH 7.4, 0.025 M) up to a final concentration of 500 μM. […] Donor solution (150 μL) was added to each well of the filter plate and to each well of the acceptor plate was added 300 μL of solution (50% DMSO in phosphate buffer). The sandwich plate was assembled and incubated for 5 h at r.t. After the incubation time, the plates were separated, and the samples were taken from both the donor and acceptor wells, and the amount of compound was measured by UV/LC–MS. All compounds were tested in three independent experiments. […] Drug concentration is estimated by using the peak area integration. Membrane retentions (%) were calculated according to the following equation [drawing 2] where r is the ratio between drug concentration in the acceptor and equilibrium concentration and D, A, and Eq represent drug concentration in the donor, acceptor, and equilibrium solution, respectively.

[5] = read-out: TNKS2 IC50, > = less than 50% inhibition at highest concentration
[6] = > = less than 50% inhibition at highest concentration, ≫ = no inhibition, read-out: PARP2 IC50

Row | SMILES | IC50 [1, 5] [µM] | IC50 [2, 6] [µM] | also measured
1 | Cc1ccc2c(c1)sc1nncn12 [Compound 1] | 5.3 | 4 | 
2 | Cc1ccc2sc3nncn3c2c1 [Compound 3, 6-Methyl[1,2,4]triazolo[3,4-b][1,3]benzothiazole] | 0.95 | 1.5 | TNKS2 pIC50 ± SEM ([1]; n = 3): 6.02 ± 0.13
3 | Cc1cccc2c1sc1nncn12 [Compound 4, 8-Methyl[1,2,4]triazolo[3,4-b][1,3]benzothiazole] | 3.8 | 8.3 | 
4 | CCc1ccc2c(c1)sc1nncn12 [Compound 5, 7-Ethyl[1,2,4]triazolo[3,4-b][1,3]benzothiazole] | 5.3 | 3.9 | 
5 | Clc1ccc2c(c1)sc1nncn12 [Compound 7] | 10 | 2.4 | 
6 | Cc1cc(C)c2c(c1)sc1nncn12 [Compound 8] | 1.2 | 1.3 | 
7 | Cc1ccc(F)c2c1sc1nncn12 [Compound 9, 5-Fluoro-8-methyl[1,2,4]triazolo[3,4-b][1,3]benzothiazole] | 5.4 |  | 
8 | COc1ccc2sc3nncn3c2c1 [Compound 10, 6-Methoxy[1,2,4]triazolo[3,4-b][1,3]benzothiazole] | 1 | 4.7 | 
9 | COc1ccc2c(c1)sc1nncn12 [Compound 11] | 5.5 | 8.8 | 
10 | COc1cccc2c1sc1nncn12 [Compound 12, 8-Methoxy[1,2,4]triazolo[3,4-b][1,3]benzothiazole] | 24 | > 10 | 
11 | COc1cccc2sc3nncn3c12 [Compound 13, 5-Methoxy[1,2,4]triazolo[3,4-b][1,3]benzothiazole] | 1 |  | 
12 | COc1ccc(OC)c2c1sc1nncn12 [Compound 14, 5,8-Dimethoxy[1,2,4]triazolo[3,4-b][1,3]benzothiazole] | 4 | 9.2 | 
13 | COc1cc(OC)c2sc3nncn3c2c1 [Compound 15, 6,8-Dimethoxy[1,2,4]triazolo[3,4-b][1,3]benzothiazole] | 7.6 | 20 | 
14 | Oc1cccc2c1sc1nncn12 [Compound 17, [1,2,4]Triazolo[3,4-b][1,3]benzothiazol-8-ol] | 17 | 29 | 
15 | Cc1ccc2c(c1)sc1nnc(O)n12 [Compound 19] | > 100 | > 100 | IC50 [3]: > 10 µM
16 | CSc1nnc2sc3cc(C)ccc3n12 [Compound 22, 7-Methyl-3-(methylthio)[1,2,4]triazolo[3,4-b][1,3]benzothiazole] | > 100 | 12 | 
17 | Cc1ccc2c(c1)sc1nnc(SCc3ccc(Cl)cc3)n12 [Compound 23, 3-[(4-Chlorobenzyl)thio]-7-methyl[1,2,4]triazolo[3,4-b][1,3]benzothiazole] | > 100 | > 100 | 
18 | Cc1ccc2c(c1)sc1nnc(/N=C\c3ccc(Cl)cc3)n12 [Compound 24, N-[(1Z)-(4-Chlorophenyl)methylene]-7-methyl[1,2,4]triazolo[3,4-b][1,3]benzothiazol-3-amine] |  |  | IC50 [1]: > 100 µM; IC50 ([2]; read-out: PARP2 IC50): 2.9 µM
19 | Cc1ccc2c(c1)sc1nnc(NCc3ccc(Cl)cc3)n12 [Compound 25, N-(4-Chlorobenzyl)-7-methyl[1,2,4]triazolo[3,4-b][1,3]benzothiazol-3-amine] | > 100 | 70 | 
20 | COc1ccc(OC)c2c1sc1nnc(S)n12 [Compound 26, 5,8-Dimethoxy[1,2,4]triazolo[3,4-b][1,3]benzothiazole-3(2H)-thione] | 66 | 19 | 
21 | COc1ccc(OC)c2c1sc1nnc(NC(=O)C(C)(C)C)n12 [Compound 30, N-(5,8-Dimethoxy[1,2,4]triazolo[3,4-b][1,3]benzothiazol-3-yl)-2,2-dimethylpropanamide] | > 100 |  | IC50 [2]: 53 µM
22 | COc1ccc(OC)c2c1sc1nnc(NC(C)=O)n12 [Compound 31, N-(5,8-Dimethoxy[1,2,4]triazolo[3,4-b][1,3]benzothiazol-3-yl)acetamide] | > 100 | 97 | 
23 | O=C(c1cc(Cc2n[nH]c(=O)c3ccccc23)ccc1F)N1CCN(C(=O)C2CC2)CC1 [olaparib, reference compound] |  |  | Papp at 5 h, 500 μM [4]: 0.016 ×10⁻⁶ cm/s

Source: publication PMC9884089 (Journal of Medicinal Chemistry, 2023)
